Data as given in patent US10940139B2, “Compounds that interact with the Ras superfamily for the treatment of cancers, inflammatory diseases, rasopathies, and fibrotic disease” (Shy Therapeutics LLC, priority 2017, dated 2021).
Where two headings read alike, the source gives them in different places.

Experiments:
Assay in all cases: Ras GTP binding domain inhibition assay (labeled GTP)
[1] = target: KRas G12C/Q61H double mutant (Homo sapiens (Human), UniProt P01116, G12C/Q61H); conditions: 20 μM compound
Outline: (§1)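 Labelled-GTP binding: plate-captured His-KRas protein was pre-exposed to compound for 3 h at room temperature (single 20 μM point or dilution series, 1% DMSO, Tris pH 7.5/MgCl2/DTT buffer). Cy3- or Cy5-GTP was then added for 45 min. Washed wells were read for retained fluorescence to give inhibition or IC50.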

[2] = target: KRas G12D/Q61H double mutant (Homo sapiens (Human), UniProt P01116, G12D/Q61H); conditions: for inhibition at 20 µM: 20 μM compound; for IC50: serial dilution, read-out: KRas G12D Q61H (classes E-H, IC50)
Outline: as §1

[3] = target: KRas Q61H mutant (Homo sapiens (Human), UniProt P01116, Q61H); conditions: 20 μM compound
Outline: as §1

[4] = read-out: % Inhibition at 20 μM KRas G12C Q61H
[5] = read-out: % Inhibition at 20 μM KRas G12D Q61H
[6] = read-out: % Inhibition at 20 μM KRas Q61H
[7] = KRas G12C/Q61H double mutant, read-out: % Inhibition at 20 μM of K-Ras mutant and wild-type protein, KRas G12C Q61H
[8] = KRas G12D/Q61H double mutant, read-out: % Inhibition at 20 μM of K-Ras mutant and wild-type protein, KRas G12D Q61H
[9] = KRas Q61H, read-out: % Inhibition at 20 μM of K-Ras mutant and wild-type protein, KRas Q61H

KRas Q61H mutant, sequence (P01116-2 other isoform, or with tags, fused parts or gaps Q61H): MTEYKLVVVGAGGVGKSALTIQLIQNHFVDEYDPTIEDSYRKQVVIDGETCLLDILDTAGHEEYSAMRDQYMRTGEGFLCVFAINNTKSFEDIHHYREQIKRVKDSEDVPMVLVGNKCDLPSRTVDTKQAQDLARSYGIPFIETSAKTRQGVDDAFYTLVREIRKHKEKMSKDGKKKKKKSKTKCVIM
KRas G12C/Q61H double mutant, sequence (P01116-2 other isoform, or with tags, fused parts or gaps G12C/Q61H): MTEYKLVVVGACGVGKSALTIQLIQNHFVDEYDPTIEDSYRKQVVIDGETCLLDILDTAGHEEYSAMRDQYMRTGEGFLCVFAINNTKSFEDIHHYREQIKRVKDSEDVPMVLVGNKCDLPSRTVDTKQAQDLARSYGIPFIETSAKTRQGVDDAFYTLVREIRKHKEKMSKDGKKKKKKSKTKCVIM
KRas G12D/Q61H double mutant, sequence (P01116-2 other isoform, or with tags, fused parts or gaps G12D/Q61H): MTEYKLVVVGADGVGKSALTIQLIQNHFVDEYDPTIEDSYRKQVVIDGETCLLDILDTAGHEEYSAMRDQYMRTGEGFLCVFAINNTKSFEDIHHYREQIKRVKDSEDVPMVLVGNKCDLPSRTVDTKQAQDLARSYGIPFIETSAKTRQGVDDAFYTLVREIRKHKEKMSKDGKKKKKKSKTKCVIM

| SMILES | inhibition at 20 µM [1, 4] | inhibition at 20 µM [2, 5] | inhibition at 20 µM [3, 6] | inhibition at 20 µM [1, 7] | inhibition at 20 µM [2, 8] | inhibition at 20 µM [3, 9] | IC50 [2] |
| --- | --- | --- | --- | --- | --- | --- | --- |
| CC(C(=O)Nc1ccnc(-c2ccccn2)n1)c1ccc(C#N)cc1 (centres unmarked) [drawing 2794] | 51 to 75% | 1 to 25% | 51 to 75% | – | – | – | – |
| O=C(c1csc2c(O)nc(-c3ccccn3)nc12)N1CCN(Cc2ccc(O)cc2)CC1 [drawing 2764] | 25 to 50% | 1 to 25% | 25 to 50% | – | – | – | – |
| COc1cnc(C2(N)CCCC2)nc1O [drawing 3490] | – | – | – | 1 to 25% | 1 to 25% | 0% | – |
| O=C(c1csc2c(O)nc(-c3ccccn3)nc12)N1CCOC(c2nccs2)C1 (centres unmarked) [drawing 2734] | 51 to 75% | 25 to 50% | 51 to 75% | – | – | – | 5 to 10 µM |
| COc1ccnc(-c2nc(O)c3c(C(F)(F)F)csc3n2)c1 [drawing 2833] | 25 to 50% | 25 to 50% | 25 to 50% | – | – | – | – |
| O=C(NCCc1cccnc1)c1csc2nc(-c3ccccn3)nc(N3CCOCC3)c12 [drawing 2744] | 25 to 50% | 1 to 25% | 51 to 75% | – | – | – | – |
| CCn1nc(C)cc1-c1csc2c(O)nc(-c3ccccn3)nc12 [drawing 2903] | 51 to 75% | 51 to 75% | 51 to 75% | – | – | – | 11 to 30 µM |
| COc1ccc(C2CN(C(=O)c3csc4c(O)nc(-c5ccccn5)nc34)CCN2)cc1 (centres unmarked) [drawing 2774] | 76 to 100% | 1 to 25% | 76 to 100% | – | – | – | – |
| COc1cc(CCN(C)C(=O)c2csc3nc(-c4ccccn4)nc(N4CCOCC4)c23)ccn1 [drawing 2781] | 25 to 50% | 0% | 25 to 50% | – | – | – | – |
| COc1cc(OC)cc(N2CCN(C(=O)c3csc4c(O)nc(-c5ccccn5)nc34)CC2)c1 [drawing 2757] | 1 to 25% | 0% | 1 to 25% | – | – | – | – |
| COc1ccc(CCNC(=O)c2csc3nc(-c4ccccn4)nc(N4CCOCC4)c23)cn1 [drawing 2745] | 25 to 50% | 25 to 50% | 51 to 75% | – | – | – | – |
| CC(C)(C(=O)Nc1nc(-c2ccccn2)nc2sccc12)c1ccc(C#N)cc1 [drawing 2752] | 1 to 25% | 0% | 1 to 25% | – | – | – | – |
| CC(C)c1nn(C)cc1-c1csc2c(O)nc(-c3ccccn3)nc12 [drawing 3501] | – | – | – | 51 to 75% | 51 to 75% | 51 to 75% | – |
| COc1cnc(CN)[nH]c1=O [drawing 2801] | 1 to 25% | 25 to 50% | 25 to 50% | – | – | – | – |
| O=C(NCCc1nnn[nH]1)c1csc2nc(-c3ccccn3)nc(N3CCOCC3)c12 [drawing 2786] | 25 to 50% | 1 to 25% | 51 to 75% | – | – | – | – |
| COc1cccc(N2CCN(C(=O)c3csc4c(O)nc(-c5ccccn5)nc34)CC2)c1 [drawing 2713] | 51 to 75% | 1 to 25% | 51 to 75% | – | – | – | – |
| COc1ccc2c(c1)CCC2C(=O)Nc1ccnc(-c2ccccn2)n1 (centres unmarked) [drawing 2795] | 1 to 25% | 1 to 25% | 25 to 50% | – | – | – | – |
| CC(C(=O)Nc1nc(-c2ccccn2)nc2sccc12)c1ccc(C#N)cc1 (centres unmarked) [drawing 2798] | 76 to 100% | 1 to 25% | 76 to 100% | – | – | – | – |
| O=C(c1csc2c(O)nc(-c3ccccn3)nc12)N1CCOC(Cc2ccccc2)C1 (centres unmarked) [drawing 2771] | 51 to 75% | 25 to 50% | 51 to 75% | – | – | – | – |
| O=C(c1csc2c(O)nc(-c3ccccn3)nc12)N1CCN(c2ccc(F)cc2)CC1 [drawing 2754] | 25 to 50% | 0% | 25 to 50% | – | – | – | – |
| O=C(c1csc2c(O)nc(-c3ccccn3)nc12)N1CCOC(CN2CCOCC2)C1 (centres unmarked) [drawing 2805] | 25 to 50% | 1 to 25% | 51 to 75% | – | – | – | – |
| Oc1nc(-c2ccccn2)nc2c3c(sc12)CNC3 [drawing 3477] | – | – | – | 76 to 100% | 51 to 75% | 76 to 100% | – |
| N#Cc1ccc(N2CCN(C(=O)c3csc4c(O)nc(-c5ccccn5)nc34)CC2)cc1 [drawing 2756] | 51 to 75% | 0% | 51 to 75% | – | – | – | – |
| O=C(c1csc2c(O)nc(-c3ccccn3)nc12)N1CCOC(c2ccccc2)C1 (centres unmarked) [drawing 2766] | 25 to 50% | 1 to 25% | 51 to 75% | – | – | – | – |

Now from value to compound, other results behind:

| inhibition at 20 µM [1, 4] | inhibition at 20 µM [2, 5] | inhibition at 20 µM [3, 6] | inhibition at 20 µM [1, 7] | inhibition at 20 µM [2, 8] | inhibition at 20 µM [3, 9] | SMILES | IC50 [2] |
| --- | --- | --- | --- | --- | --- | --- | --- |
| – | – | – | 1 to 25% | 0% | 1 to 25% | Oc1nc(-c2ccccn2)nc2c(Br)c(-c3ccccc3)sc12 [drawing 3553] | – |
| – | – | – | 25 to 50% | 25 to 50% | 51 to 75% | O=C(NCCc1ccncn1)c1csc2nc(-c3ccccn3)nc(N3CCOCC3)c12 [drawing 3500] | – |
| 25 to 50% | 25 to 50% | 51 to 75% | – | – | – | Nc1nc(-c2ccccn2)nc2scc(Br)c12 [drawing 2894] | – |
| – | – | – | 1 to 25% | 1 to 25% | 1 to 25% | Nc1nc(O)c2sc(-c3cccc(C(=O)N4CCC(O)C4)c3)cc2n1 (centres unmarked) [drawing 3543] | – |
| – | – | – | 25 to 50% | 1 to 25% | 51 to 75% | Oc1nc(-c2ccccn2)nc2cc(-c3ccccc3Cl)sc12 [drawing 3556] | – |
| – | – | – | 0% | 1 to 25% | 0% | COc1nc(-c2ccccn2)nc(Oc2cccc(C(F)(F)F)c2)c1OC [drawing 3552] | – |
| 51 to 75% | 51 to 75% | 51 to 75% | – | – | – | Oc1nc(-c2ccccn2)nc2c(-c3ccc(C4CCC4)cc3)csc12 [drawing 2865] | – |
| – | – | – | 51 to 75% | 51 to 75% | 76 to 100% | COC(=O)c1c(C)sc2c(N)nc(-c3ccccn3)nc12 [drawing 3499] | – |
| – | – | – | 1 to 25% | 1 to 25% | 1 to 25% | COCC(C)Nc1nc(-c2ccccn2)nc(C(=O)NCCCc2c[nH]cn2)c1Oc1ccccc1 (centres unmarked) [drawing 3550] | – |
| – | – | – | 25 to 50% | 25 to 50% | 51 to 75% | Oc1nc(-c2ccccn2)nc2c(-c3cnc4ccccc4c3)csc12 [drawing 3462] | – |
| 25 to 50% | 1 to 25% | 25 to 50% | – | – | – | Oc1nc(-c2ccccn2)nc2c(-c3ccnn3-c3ccccn3)csc12 [drawing 2904] | – |
| – | – | – | 1 to 25% | 1 to 25% | 25 to 50% | N#Cc1cccc(-c2csc3c(O)nc(-c4ccccn4)nc23)c1 [drawing 3503] | – |
| 51 to 75% | 51 to 75% | 51 to 75% | – | – | – | N#Cc1ccc2c(c1)CCCC2C(=O)Nc1ccnc(-c2ccccn2)n1 (centres unmarked) [drawing 2855] | – |
| 1 to 25% | 25 to 50% | 1 to 25% | – | – | – | COc1cc(C)c(-c2csc3c(O)nc(-c4ccccn4)nc23)cc1C [drawing 2869] | – |
| 51 to 75% | 51 to 75% | 51 to 75% | – | – | – | CC(C)(C)c1ccc(-c2csc3c(O)nc(-c4ccccn4)nc23)cc1 [drawing 2847] | – |
| 25 to 50% | 25 to 50% | 25 to 50% | – | – | – | Cc1cc(OC(F)F)ccc1-c1csc2c(O)nc(-c3ccccn3)nc12 [drawing 2878] | – |
| – | – | – | 51 to 75% | 51 to 75% | 51 to 75% | COC(=O)c1c(C)sc2c(O)nc(-c3ccccn3)nc12 [drawing 3473] | – |
| – | – | – | 1 to 25% | 1 to 25% | 25 to 50% | Oc1nc(-c2ccccn2)nc2c(-c3cncnc3)csc12 [drawing 3504] | – |
| – | – | – | 51 to 75% | 25 to 50% | 51 to 75% | Oc1nc(-c2ccccn2)nc2c(CC3CCCNC3)csc12 (centres unmarked) [drawing 3488] | – |
| – | – | – | 25 to 50% | 25 to 50% | 25 to 50% | Cc1sc2nc(-c3ccccn3)nc(N)c2c1Br [drawing 3484] | – |
| 1 to 25% | 25 to 50% | 25 to 50% | – | – | – | O=C(NCCc1cnc(O)nc1)c1csc2nc(-c3ccccn3)nc(N3CCS(=O)(=O)CC3)c12 [drawing 2854] | – |
| 25 to 50% | 25 to 50% | 25 to 50% | – | – | – | Oc1nc(-c2ccccn2)nc2c(-c3ccc(OC4CCCC4)cc3)csc12 [drawing 2863] | – |
| 51 to 75% | 51 to 75% | 76 to 100% | – | – | – | O=C(c1cc2nc(-c3ccccn3)nc(O)c2s1)N1CCOC(c2ccccc2)C1 (centres unmarked) [drawing 2842] | – |
| – | – | – | 1 to 25% | 0% | 1 to 25% | Cn1cnc(-c2nc(O)c3sc(-c4ccncc4)c(-c4ccccc4)c3n2)c1 [drawing 3549] | – |
| – | – | – | 0% | 0% | 51 to 75% | Oc1nc(-c2ccccn2)nc2c(-c3ccccc3)c(-c3ccncc3)sc12 [drawing 3548] | – |
| – | – | – | 1 to 25% | 1 to 25% | 1 to 25% | Oc1nc(-c2ccccn2)nc2c(-c3cncc(F)c3)csc12 [drawing 3464] | – |
